The results in this text go back to patent US20220000841A1, “INHIBITORS OF METALLO-BETA-LACTAMASES” (CENTRE NATIONAL DE LA RECHERCHE SCIENTIFIQUE, priority 2018, published 2022).

For data set [1], the target named is VIM-2 (Escherichia coli, UniProt Q5U7L7). Put plainly: Enzymatic assay for determination of inhibition constants, reporter substrate method, purified VIM-2.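 Also: purified VIM-2 hydrolysing a reporter substrate (imipenem, meropenem, cefotaxime or nitrocefin), reaction rate read as absorbance change, HEPES 50 mM at pH 7.5.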 Format: biochemical.
Experimental: (§1) The reaction rate was measured as the variation of absorbance observed upon substrate hydrolysis in a UV-Vis spectrophotometer or microplate reader at a wavelength of 300 nm (imipenem, meropenem), 260 nm (cefotaxime) or 482 nm (nitrocefin) in 50 mM HEPES buffer (pH 7.5) and in the presence of a purified MBL enzyme (such as VIM-1, VIM-2, VIM-4, NDM-1 and IMP-1, at a final concentration ranging 1-70 nM).
(§2) The inhibition constants (Ki) were determined on the basis of a model of competitive inhibition by analyzing the dependence of the ratio v0/vi (v0, hydrolysis velocity in the absence of inhibitor; vi, hydrolysis velocity in the presence of inhibitor) as a function of [I] as already described [Docquier J. D., Lamotte-Brasseur J., Galleni M., Amicosante G., Frère J. M., Rossolini G. M. (2003) J. Antimicrob. […] The slope of the plot of v0/vi vs [I], which corresponds to Km^S/(Km^S+[S])Ki (where Km^S is the Km value of the reporter substrate and [S] its concentration in the reaction mixture) and allowed the calculation of the Ki value. Alternatively, a Dixon plot analysis was carried out, by measuring the initial hydrolysis rates in the presence of variable concentrations of inhibitor and substrate.
Data set [2] deals with IMP-1 (Serratia marcescens, UniProt P52699). Nature of the data set: Enzymatic assay for determination of inhibition constants, reporter substrate method, purified IMP-1.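 As to all read-outs here: purified IMP-1 (1-70 nM) hydrolysing a reporter substrate, initial rates followed as absorbance change at 260, 300 or 482 nm in 50 mM HEPES pH 7.5.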 The class given is biochemical. Conditions: for Ki: isolated MBL, competitive inhibition model; for % inhibition IMP-1: at 200 μM (maximal tested concentration).
Experimental: as §1, §2
For data set [3], the target named is NDM-1 (Klebsiella pneumoniae, UniProt C7C422). Nature of the data set: Enzymatic assay for determination of inhibition constants, reporter substrate method, purified NDM-1.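 As to all read-outs here: purified enzyme activity followed as absorbance change from reporter substrate hydrolysis on a UV-Vis spectrophotometer or plate reader, 50 mM HEPES pH 7.5.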 The class given is biochemical. Conditions: for Ki: isolated MBL, competitive inhibition model.
Experimental: as §1, §2
In data set [4] the target is VIM-4 (Pseudomonas aeruginosa, UniProt Q8KRJ3). Put plainly: Enzymatic assay for determination of inhibition constants, reporter substrate method, purified VIM-4.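 Also: purified VIM-4 (1-70 nM) in 50 mM HEPES pH 7.5, reporter substrate hydrolysis rate tracked by absorbance change (nitrocefin 482 nm, imipenem or meropenem 300 nm, cefotaxime 260 nm).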 The class given is biochemical. As to conditions: at 100 μM (maximal tested concentration).
The target in data set [5] is VIM-1 (Pseudomonas aeruginosa, UniProt A0A0F7KYQ8). Nature of the data set: Enzymatic assay for determination of inhibition constants, reporter substrate method, purified VIM-1.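 As to all read-outs here: initial hydrolysis rates of a reporter β-lactam (imipenem, meropenem, cefotaxime or nitrocefin) followed by absorbance change, purified enzyme at 1–70 nM in 50 mM HEPES pH 7.5.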 Conditions: for Ki: isolated MBL, competitive inhibition model. The class given is biochemical.
Experimental: as §1, §2
The mark [6] stands for this setting: at 200 μM (maximal tested concentration).
[7] abbreviates: isolated MBL, competitive inhibition model, read-out: Ki VIM-2.
Setting [8] is: at 100 μM (maximal tested concentration).

Read-outs that look alike come from different tables or passages of the source.

NDM-1, sequence (C7C422 29-270, looked up, species assumed): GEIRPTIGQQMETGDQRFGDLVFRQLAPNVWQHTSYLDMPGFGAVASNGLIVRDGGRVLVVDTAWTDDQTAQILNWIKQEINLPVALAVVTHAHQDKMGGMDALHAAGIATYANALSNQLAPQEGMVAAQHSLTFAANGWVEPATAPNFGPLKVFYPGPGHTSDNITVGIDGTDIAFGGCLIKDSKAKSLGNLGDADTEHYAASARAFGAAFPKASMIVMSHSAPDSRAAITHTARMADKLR
IMP-1, sequence (P52699 19-246, looked up, species assumed): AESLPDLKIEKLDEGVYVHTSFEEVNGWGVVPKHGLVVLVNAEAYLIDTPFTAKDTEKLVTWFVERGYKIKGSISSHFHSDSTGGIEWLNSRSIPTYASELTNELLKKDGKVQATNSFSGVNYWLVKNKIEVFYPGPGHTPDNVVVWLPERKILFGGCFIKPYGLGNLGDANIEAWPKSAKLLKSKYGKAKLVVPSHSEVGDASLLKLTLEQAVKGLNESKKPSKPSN

By Ki is commonly meant a dissociation constant, usually derived from enzyme kinetics or from competition with a known ligand. What is called melting point is the temperature of the solid-liquid transition. Compound `O=C(O)CCCn1c(-c2ccc3ccccc3n2)n[nH]c1=S` [Compound 50, 4-[3-(Quinolin-2-yl)-5-sulfanylidene-4,5-dihydro-1H-1,2,4-triazol-4-yl]butanoic acid] came in with a melting point of 238 to 239 °C. Further, in data set [1] (setting [6]), the “% inhibition VIM-2” value came to 80% at 200 μM. Further, the inhibition constant Ki in data set [2] was over 100 µM. The “% inhibition NDM-1” value in data set [3] (setting [6]) is given as 50% at 200 μM. The “% inhibition VIM-4” value in data set [4] is on record as 85% at 100 μM.

Compound `O=C(O)c1ccccc1CNn1c(-c2ccc3ccccc3c2)n[nH]c1=S` [Compound 16, 2-({[3-(naphthalen-2-yl)-5-sulfanylidene-4,5-dihydro-1H-1,2,4-triazol-4-yl]amino}methyl)benzoic acid] yielded a melting point of 213 to 214 °C. Besides, the Ki in data set [1] (setting [7]) is 1 to 10 µM. The Ki in data set [5] is over 100 µM. This compound also registered a Ki in data set [2] of over 100 µM. Further, the Ki in data set [3] was over 100 µM.

Consider `FC(F)(F)c1cc(SCCn2c(-c3ccccc3)n[nH]c2=S)c2ccccc2n1` [Compound 28, 3-phenyl-4-(2-{[2-(trifluoromethyl)quinolin-4-yl]sulfanyl}ethyl)-4,5-dihydro-1H-1,2,4-triazole-5-thione], for which the melting point fell in the range of 184 to 185 °C. In data set [1] (setting [7]), the inhibition constant (Ki) was over 100 µM. This compound also registered a Ki in data set [2] of over 100 µM. The same compound came in with a Ki in data set [3] of 10 to 100 µM.

Turning to `Cc1nnsc1-c1n[nH]c(=S)n1CCc1ccccc1C(=O)O` [Compound 23, 2-{2-[3-(4-methyl-1,2,3-thiadiazol-5-yl)-5-sulfanylidene-4,5-dihydro-1H-1,2,4-triazol-4-yl]ethyl}benzoic acid], the melting point is 195 to 196 °C. The Ki in data set [1] (setting [7]) was over 100 µM. For the same compound, the “% inhibition IMP-1” value in data set [2] is given as 95% at 200 μM. In data set [3], this compound showed an inhibitory constant (Ki) of over 100 µM.

Take `Cc1ccccc1-c1n[nH]c(=S)n1CCc1ccccc1` [Compound 6, 3-(2-methylphenyl)-4-(2-phenylethyl)-4,5-dihydro-1H-1,2,4-triazole-5-thione]: the “% inhibition VIM-2” value in data set [1] (setting [6]) is on record as 60% at 200 μM. Also, the “% inhibition VIM-1” value in data set [5] (setting [6]) came to 60% at 200 μM. The “% inhibition IMP-1” value in data set [2] is 80% at 200 μM. Also, the inhibitory constant (Ki) in data set [3] is over 100 µM. The “% inhibition VIM-4” value in data set [4] worked out at 50% at 100 μM.

`S=c1[nH]nc(-c2ccccc2)n1CCCSc1ccccc1` [Compound 79, 5-Phenyl-4-[3-(phenylthio)propyl]-2,4-dihydro-1,2,4-triazole-3-thione]: the “% inhibition VIM-2” value in data set [1] (setting [8]) worked out at 72% at 100 μM. In addition, the “% inhibition VIM-1” value in data set [5] (setting [8]) is 82% at 100 μM. Moreover, the Ki in data set [2] and in data set [3] was over 100 µM in each case. The “% inhibition VIM-4” value in data set [4] was 71% at 100 μM.

On to `[N-]=[N+]=NCCn1c(-c2ccccc2)n[nH]c1=S` [Compound 49, 4-(2-Azidoethyl)-3-phenyl-4,5-dihydro-1H-1,2,4-triazole-5-thione], for which the melting point lay within 108 to 109 °C. Further, the inhibition constant (Ki) in data set [1] (setting [7]) was over 100 µM. In addition, the “% inhibition IMP-1” value in data set [2] was determined as 90% at 200 μM. This compound also showed an inhibition constant Ki in data set [3] of over 100 µM.

For the compound `S=c1[nH]nc(-c2ccccc2)n1CCc1ccccc1` [Compound 11, 3-phenyl-4-(2-phenylethyl)-4,5-dihydro-1H-1,2,4-triazole-5-thione], the Ki in data set [1] (setting [7]) is over 100 µM; in data set [2], 1 to 10 µM; in data set [3], over 100 µM. Moreover, the “% inhibition VIM-1” value in data set [5] (setting [6]) is listed as 75% at 200 μM. Besides, in data set [4], the “% inhibition VIM-4” value is given as 75% at 100 μM.

For the compound `O=C(O)c1ccccc1CCn1c(-c2ccccc2)n[nH]c1=S` [Compound 1, 2-[2-(3-phenyl-5-sulfanylidene-4,5-dihydro-1H-1,2,4-triazol-4-yl)ethyl]benzoic acid], the melting point lay in the range of 220 to 221 °C. Further, the inhibition constant (Ki) in data set [1] (as listed in Table 2, read-out: Ki on VIM-2) is under 1 µM. Besides, the inhibition constant (Ki) in data set [1] (setting [7]) is under 1 µM. The same compound displayed an inhibition constant Ki in data set [5] of over 100 µM. Besides, in data set [2], the inhibitory constant (Ki) is over 100 µM. For the same compound, the inhibitory constant (Ki) in data set [3] was over 100 µM.
